pIC50: −log10 of the molar value. “And” between values parts separate entries of the source, which are not always exact repeats. Equal entries are not always repeated. Where two headings read alike, the source gives them in different places.
Columns and labels:
[1] = tested on: promastigotes of L. amazonensis; test: Growth inhibition of promastigote forms of L. amazonensis (MTT); format: cell-based, Leishmania amazonensis; conditions: 72 h, 26 °C
Method: (§1) The in vitro tests utilized Leishmania amazonensis parasites (IFLA/BR/67/PH8). These leishmania cell lines were obtained from Oswaldo Cruz Foundation (FIOCRUZ)/Brazil. The promastigote forms were cultivated in Schneider’s insect medium at 26 °C in a biological oxygen demand (BOD) incubator. Schneider’s insect medium was supplemented with 20% fetal bovine serum (FBS) and 1% penicillin (100 U/mL) and streptomycin (µg/mL) (complete Schneider). Next, we differentiated them from promastigote forms by changing the conditions to Schneider’s insect medium supplemented with 5% FBS, pH 4.6, and a temperature of 32 °C to obtain axenic amastigote forms of L. amazonensis. Meanwhile, RAW 264.7 macrophages were cultured in […] cell culture flasks using DMEM medium supplemented with 10% FBS, 1% penicillin 100 U/mL, and 100 μg/mL streptomycin (complete DMEM) and incubated at 37 °C and 5% CO2.
(§2) Parasite growth inhibition was evaluated using the methodology described by Rodrigues et al. (2015). Cultures of logarithmically growing promastigote and axenic amastigote forms (1 × 10^6 parasites/mL) were incubated in 96-well plates containing 100 µL of supplemented Schneider’s medium in triplicate. Serial concentrations of 2-amino-thiophene and 2-amino-selenophene derivatives (10.00–0.156 μM) and the reference drugs meglumine antimoniate (500–40,000 μg/mL), amphoterecinB (0.1–2 μM), and pentamidine (3.12–100 µM) were added. BNP was used as a negative control. The cultures were incubated in a biological oxygen demand oven (model Eletrolab EL202, São Paulo, Brazil) at 26 °C for promastigotes and 32 °C for axenic amastigotes for 72 h. Then, 10 μL of MTT (5 mg/mL) was added to each well to colorimetrically evaluate growth inhibition. The plate was subsequently incubated for a further 4 h, followed by adding 50 μL of 10% sodium dodecyl sulfate solution for […] before the optical density of the culture was read on a microplate spectrophotometer reader. The reading was taken at the test and reference wavelengths of 540 and 620 nm using a microplate spectrophotometer. The negative control consisted of 0.2% […] with BNP, considered to be 100% viable.

[2] = tested on: axenic amastigotes of L. amazonensis; test: Growth inhibition of axenic amastigote forms of L. amazonensis (MTT); format: cell-based, Leishmania amazonensis; conditions: Leishmania amazonensis, 72 h, 32 °C
Method: as §1, §2

[3] = Cytotoxicity in macrophages (MTT); format: cell-based; conditions: mouse, RAW 264.7 macrophages
Method: as §1
First, 100 μL DMEM medium complete with 1 × 10^6 macrophages (RAW 264.7) was added to each well of a 96-well plate. RAW 264.7 macrophages were obtain from ATCC: code TIB-71^TM. The plate was placed in an incubator (37 °C, 5% CO2) (Sanyo, model COM-15A, Sanyo Electric Co., Osaka, Japan) for 4 h to promote cell adhesion. After this period, two washes were conducted with previously heated DMEM medium (37 °C) to remove non-adhered cells. 2-amino-thiophene and 2-amino-selenophene derivatives were added to wells at serial concentrations of 400 to 25 µM and then incubated for 48 h. Next, 10 μL of MTT at a […] of 5 mg/mL were added to each well and incubated for 4 h. The plate was then shaken for 30 min and read at the test and reference wavelengths of 550 and 620 nm, respectively, in a plate reader. DMEM medium supplemented with 0.5% DMSO was used as a negative control and considered as 100% macrophage viability. The selectivity index for each treatment was calculated as the ratio between the concentration of cytotoxicity of RAW 264.7 macrophages (CC50) and the 50% inhibitory concentration (IC50) or effective concentration (EC50), as measured for the different evolutionary forms of L. amazonensis.

[4] = tested on: axenic amastigotes of L. amazonensis; conditions: cited from earlier work
RAW 264.7 macrophages = conditions: previously published; cited from earlier work
[5] = tested on: promastigotes of L. amazonensis; conditions: cited from earlier work
[6] = L. amazonensis promastigotes, sensitive strain, read-out: IC50 anti-promastigote
[7] = L. amazonensis, read-out: IC50 against axenic amastigotes
[8] = L. amazonensis, read-out: IC50 against promastigotes

`CCC1CCc2c(sc(N)c2C#N)C1` (stereo not shown) [Compound 14] showed a pIC50 ([1]; Leishmania amazonensis) of under 5.00 and a pIC50 [2] of under 5.00.
Work on `CCOC(=O)c1c(N)sc2c1CCN(C(=O)OC(C)(C)C)C2` [Compound 21] yielded a pIC50 ([1]; Leishmania amazonensis) of 5.51, a pIC50 [2] of 5.54 and a CC50 at 48 h [3] of 221 µM.
`CCCC1CCc2c(sc(/N=C/c3c[nH]c4ccc(Br)cc34)c2C#N)C1` (stereo not shown) [Compound 28] showed a pIC50 [1] of 5.09, a pIC50 ([1]; Leishmania amazonensis) of over 5.00 and a pIC50 [2] of under 5.00.
In the case of `N#Cc1c(/N=C/c2c[nH]c3ccccc23)[se]c2c1CCCC2` [Compound 32], the “IC50 Promastigotes” value [1] was “not active up to the highest concentration evaluated” and the pIC50 ([1]; Leishmania amazonensis) was under 5.00.
For `COc1cccc2[nH]cc(/C=N/c3[se]c4c(c3C#N)CCCC4)c12` [Compound 39], the pIC50 [1] was 5.67, the pIC50 ([1]; Leishmania amazonensis) was over 5.46 and the CC50 at 48 h [3] was 178 µM.
For `N#Cc1c(N)sc2c1CCC2` [Compound 4], the pIC50 ([1]; Leishmania amazonensis) was under 5.00 and the pIC50 [2] was under 5.00.
For `CC1CCc2c(sc(/N=C/c3c[nH]c4ccc(Br)cc34)c2C#N)C1` (stereo not shown) [Me-6CN83], the pIC50 ([4]; L. amazonensis axenic amastigotes, previously published, read-out: IC50 Amastigotes) is given as 5.06, the CC50 (RAW 264.7 macrophages) is given as over 100 µM and the pIC50 ([5]; L. amazonensis promastigotes, previously published, read-out: IC50 Promastigotes) is given as 5.00.
Compound `N#Cc1c(/N=C/c2c[nH]c3cccc(Br)c23)[se]c2c1CCCC2` [Compound 37] has a pIC50 ([1]; Leishmania amazonensis) of 5.35 and a CC50 at 48 h [3] of 242 µM.
`CC1CCc2c(sc(N)c2C#N)C1` (stereo not shown) [Compound 13] gave a pIC50 ([1]; Leishmania amazonensis) of under 5.00 and a pIC50 [2] of under 5.00.
For `N#Cc1c(/N=C/c2c[nH]c3ccccc23)sc2c1CCCCC2` [TN7, reference compound], the pIC50 [5, 6] is listed as 5.00.
In the case of `CC(C)(C)OC(=O)N1CCc2c(sc(N)c2C(N)=O)C1` [Compound 19], the pIC50 ([1]; Leishmania amazonensis) was 5.03, the pIC50 [2] was under 5.00 and the CC50 at 48 h [3] was 310 µM. The pIC50 [4, 7] was 6.05 and the pIC50 [5, 8] was 5.68 and 5.67.
For `Cc1ccc2[nH]cc(/C=N/c3[se]c4c(c3C#N)CCCC4)c2c1` [Compound 35], the “IC50 Promastigotes” value [1] was “not active up to the highest concentration evaluated” and the pIC50 ([1]; Leishmania amazonensis) was under 5.00.
For `CCOC(=O)c1c(N)sc2c1CCC2` [Compound 9], the pIC50 ([1]; Leishmania amazonensis) was under 5.00.
With `N#Cc1c(N)sc2c1CCN(Cc1ccccc1)C2` [Compound 18] the “IC50 Promastigotes” value [1] was “inactive compound”, the pIC50 ([1]; Leishmania amazonensis) was under 5.00 and the pIC50 [2] was under 5.00.
Compound `N#Cc1c(/N=C/c2c[nH]c3ccc(Br)cc23)[se]c2c1CCCC2` [Compound 38] has a pIC50 [1] of 5.46, a pIC50 ([1]; Leishmania amazonensis) of over 5.46 and a CC50 at 48 h [3] of 239 µM.
In the case of `N#Cc1c(/N=C/c2c[nH]c3cccc(Br)c23)sc2c1CCCCCC2` [Compound 42, reference compound], the pIC50 [4, 7] is listed as 5.77 and the pIC50 [5, 8] is listed as 5.54 and 5.53.
Compound `Cc1cccc2c(/C=N/c3[se]c4c(c3C#N)CCCC4)c[nH]c12` [Compound 36] has a pIC50 [1] of 5.53, a pIC50 ([1]; Leishmania amazonensis) of over 5.46 and a CC50 at 48 h [3] of 186 µM.
In the case of `Cc1ccc2[nH]cc(/C=N/c3sc4c(c3C#N)CCCC4)c2c1` [TN6-1, reference compound], the pIC50 [5, 6] is listed as 5.14.
`Cc1cc(C#N)c(N)s1` [Compound 1] gave a pIC50 ([1]; Leishmania amazonensis) of under 5.00 and a pIC50 [2] of under 5.00.
In the case of `N#Cc1ccc2[nH]cc(/C=N/c3[se]c4c(c3C#N)CCCC4)c2c1` [Compound 33], the pIC50 ([1]; Leishmania amazonensis) was 5.03 and the CC50 at 48 h [3] was 203 µM.
With `N=C(N)c1ccc(OCCCCCOc2ccc(C(=N)N)cc2)cc1` [Pentamidine, reference compound] the pIC50 ([1]; Leishmania amazonensis) was 4.37 and the CC50 at 48 h [3] was 294 µM.
`CCC1CCc2c(sc(/N=C/c3c[nH]c4ccc(Br)cc34)c2C#N)C1` (stereo not shown) [Compound 27] showed a pIC50 ([1]; Leishmania amazonensis) of under 5.00 and a pIC50 [2] of under 5.00.
`CCOC(=O)c1c(N)sc2c1CCCC2` [Compound 10] gave a pIC50 ([1]; Leishmania amazonensis) of under 5.00.
Compound `CC(C)(C)OC(=O)c1c(N)sc2c1CCN(C(=O)OC(C)(C)C)C2` [Compound 22] has a pIC50 ([1]; Leishmania amazonensis) of 5.19, a pIC50 [2] of 5.08 and a CC50 at 48 h [3] of 195 µM.

From paper PMC11768359, “2-Aminothiophene Derivatives—New Drug Candidates Against Leishmaniasis: Drug Design, Synthesis, Pharmacomodulation, and Antileishmanial Activity” (Pharmaceuticals, 2025)
